In ChEMBL document CHEMBL1240402 (2010):
Active and inactive are the calls of the source. No cut-off for these calls is given here.

Assays:
Type in all cases: functional
Clostridium perfringens [1] = assay: Antimicrobial activity against Clostridium perfringens LFM1 assessed as susceptibility breakpoint by DIN-standardized microdilution method
Clostridium perfringens [2] = assay: Antimicrobial activity against Clostridium perfringens LFM1 assessed as susceptibility breakpoint by DANMAP method
Escherichia coli = assay: Antimicrobial activity against flo gene positive Escherichia coli
Clostridium perfringens [3] = assay: Antimicrobial activity against Clostridium perfringens LFM1 assessed as susceptibility breakpoint by EUCAST method

CCC[C@@H]1C[C@@H](C(=O)N[C@@H]([C@H]2O[C@H](SC)[C@H](O)[C@@H](O)[C@H]2O)[C@H](C)Cl)N(C)C1
Activity (Clostridium perfringens [1]): inactive

CC[C@H]1OC(=O)[C@H](C)[C@@H](O[C@H]2C[C@@](C)(OC)[C@@H](O)[C@H](C)O2)[C@H](C)[C@@H](O[C@@H]2O[C@H](C)C[C@H](N(C)C)[C@H]2O)[C@](C)(O)C[C@@H](C)C(=O)[C@H](C)[C@@H](O)[C@]1(C)O
Activity (Clostridium perfringens [1]): inactive

O=C(N[C@H](CO)[C@H](O)c1ccc([N+](=O)[O-])cc1)C(Cl)Cl
Activity (Clostridium perfringens [2]): inactive

CS(=O)(=O)c1ccc([C@@H](O)[C@@H](CF)NC(=O)C(Cl)Cl)cc1 [FLORFENICOL]
MIC (Escherichia coli): > 32 µg/mL
Activity (Clostridium perfringens [2]): inactive

CC(=O)NC[C@H]1CN(c2ccc(N3CCOCC3)c(F)c2)C(=O)O1 [LINEZOLID]
Activity (Clostridium perfringens [3]): inactive
Activity (Clostridium perfringens [3]; record 2): <=2 mg/L
MIC (Escherichia coli): > 64 µg/mL
Activity (Clostridium perfringens [1]): <=2 mg/L
Activity (Clostridium perfringens [2]): <=2 mg/L
